According to patent publication US10213429B2, “Imidazo-pyrazinyl derivatives useful as soluble guanylate cyclase activators” (Merck Sharp & Dohme Corp., priority 2015, dated 2019):

Key:
sGC α1/β1 heterodimer = biological target: T1, sGC α1/β1 heterodimer (Homo sapiens, UniProt Q02108+Q02153); assay: Cell-Based sGC Functional Assay (CASA Assay), cGMP by HTRF in CHO-K1/sGC cells; settings: for Emax: CHO-K1, percent activation relative to maximum cGMP production of Compound A (= 100%), read-out: % Act.; for EC50: cGMP production, 1 hr at 37° C., 4P fit, presence or absence of 1 μM DETA-NO not given, read-out: IP (nM) (inflection point)
T1 construct: expressed in transfected cells; host or cells: CHO-K1 (clone #7, CHO-K1/sGC)
T1 sequence (Q02108 1-690): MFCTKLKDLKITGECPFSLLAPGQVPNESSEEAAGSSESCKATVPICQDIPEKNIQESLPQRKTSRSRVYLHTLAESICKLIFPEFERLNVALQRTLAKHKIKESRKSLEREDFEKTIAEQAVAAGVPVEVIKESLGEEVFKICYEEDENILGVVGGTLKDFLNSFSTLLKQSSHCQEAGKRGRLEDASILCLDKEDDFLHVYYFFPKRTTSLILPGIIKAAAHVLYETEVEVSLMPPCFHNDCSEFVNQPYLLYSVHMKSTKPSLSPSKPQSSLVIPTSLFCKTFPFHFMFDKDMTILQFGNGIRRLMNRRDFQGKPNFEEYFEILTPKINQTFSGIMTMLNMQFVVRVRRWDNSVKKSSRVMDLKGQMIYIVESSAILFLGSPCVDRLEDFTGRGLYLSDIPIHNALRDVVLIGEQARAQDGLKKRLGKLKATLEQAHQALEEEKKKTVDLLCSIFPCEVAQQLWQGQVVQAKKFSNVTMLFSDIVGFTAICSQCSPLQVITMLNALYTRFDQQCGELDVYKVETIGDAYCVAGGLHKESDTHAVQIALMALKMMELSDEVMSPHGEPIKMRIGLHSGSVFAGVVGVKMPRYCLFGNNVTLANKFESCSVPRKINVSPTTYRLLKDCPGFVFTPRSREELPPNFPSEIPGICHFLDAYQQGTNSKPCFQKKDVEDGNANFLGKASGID
T1 sequence (Q02153 1-619): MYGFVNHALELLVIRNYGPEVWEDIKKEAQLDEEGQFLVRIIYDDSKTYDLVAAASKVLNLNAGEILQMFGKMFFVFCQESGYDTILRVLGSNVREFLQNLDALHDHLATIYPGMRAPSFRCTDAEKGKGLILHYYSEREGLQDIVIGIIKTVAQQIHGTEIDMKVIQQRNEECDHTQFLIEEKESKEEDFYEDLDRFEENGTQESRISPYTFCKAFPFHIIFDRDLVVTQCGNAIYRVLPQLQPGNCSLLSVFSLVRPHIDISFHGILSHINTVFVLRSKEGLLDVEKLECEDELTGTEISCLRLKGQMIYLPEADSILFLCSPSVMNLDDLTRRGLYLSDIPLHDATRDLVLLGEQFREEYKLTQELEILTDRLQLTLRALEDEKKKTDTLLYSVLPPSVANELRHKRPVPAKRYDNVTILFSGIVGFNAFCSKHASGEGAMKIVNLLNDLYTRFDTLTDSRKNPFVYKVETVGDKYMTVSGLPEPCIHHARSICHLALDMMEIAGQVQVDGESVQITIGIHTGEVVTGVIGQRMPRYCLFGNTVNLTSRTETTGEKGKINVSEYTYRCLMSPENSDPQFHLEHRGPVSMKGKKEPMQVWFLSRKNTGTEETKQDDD
Summary of the method: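 CHO-K1 cells stably expressing human sGC α1/β1, in EBSS buffer with 5 mM MgCl2, 10 mM HEPES, 0.05% BSA and 0.5 mM IBMX, incubated with compound (2.5% DMSO) ± 1 μM DETA-NO, 1 h, 37 °C. Intracellular cGMP read by HTRF; activity as % of reference activator maximum, IP from 4-parameter fit.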

[1] = tested on: Spontaneously hypertensive rats (SHR); assay: Acute Efficacy in Spontaneously Hypertensive Rats (SHR), telemetry blood pressure; format: in vivo, rat; settings: SHR male
Summary of the method: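 Male SHR with aortic telemetry, conscious and freely moving, recovered 14 days post-surgery. Single oral gavage; vehicle 10% transcutol/20% Cremophor/70% water dosed the day before as baseline. Hourly blood pressure averages minus baseline; maximum peak systolic decrease reported at a stated oral dose (mpk).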

Row | Emax (sGC α1/β1 heterodimer) [%] | EC50 (sGC α1/β1 heterodimer) [nM] | Compound | Cat. (maximum peak decrease of systolic blood pressure (SBP) in SHR) ([1]; single oral dose 1.0 mpk P.O.) | Cat. (maximum peak decrease of systolic blood pressure (SBP) in SHR) ([1]; single oral dose 3.0 mpk P.O.)
1 | 121 | 50 | CCCCc1nc(-c2ncc3c(n2)NC(=O)C3(C)c2ccc(F)cc2)cn2ccnc12 (stereo not drawn) [Example 78A, 2-(8-Butylimidazo[1,2-a]pyrazin-6-yl)-5-(4-fluorophenyl)-5-methyl-5H-pyrrolo[2,3-d]pyrimidin-6(7H)-one] | C (Category C=SBP in SHRs>40 mmHg) | –
2 | 95 | 245 | CC1(c2ccc(Cl)cn2)C(=O)Nc2nc(-c3cn4ccnc4c(CCCC(F)(F)F)n3)nc(O)c21 (stereo not drawn) [Example 28A, 5-(5-chloropyridin-2-yl)-4-hydroxy-5-methyl-2-(8-(4,4,4-trifluorobutyl)imidazo[1,2-a]pyrazin-6-yl)-5H-pyrrolo[2,3-d]pyrimidin-6(7H)-one] | A (Category A=SBP in SHRs<20 mmHg) | –
3 | 124 | 102 | O=C1Nc2nc(-c3cn4ccnc4c(CCCC(F)(F)F)n3)nc(O)c2C1(c1ccc(Cl)cc1F)C1CC1 (stereo not drawn) [Example 34A, 5-(4-chloro-2-fluorophenyl)-5-cyclopropyl-4-hydroxy-2-(8-(4,4,4-trifluorobutyl)imidazo[1,2-a]pyrazin-6-yl)-5H-pyrrolo[2,3-d]pyrimidin-6(7H)-one] | – | B (Category B=SBP in SHRs 20-40 mmHg)
4 | 92 | 525 | O=C1Nc2nc(-c3cn4ccnc4c(CCC(F)(F)C(F)(F)F)n3)nc(O)c2C1(c1ccc(F)cc1)C1CC1 (stereo not drawn) [Example 12B, 5-cyclopropyl-5-(4-fluorophenyl)-4-hydroxy-2-(8-(3,3,4,4,4-pentafluorobutyl)imidazo[1,2-a]pyrazin-6-yl)-5H-pyrrolo[2,3-d]pyrimidin-6(7H)-one] | – | A (Category A=SBP in SHRs<20 mmHg)
